Reference: ChEMBL document CHEMBL3612057, “Discovery of indolizines containing triazine moiety as new leads for the development of antitumoral agents targeting mitotic events” (2015)
Activity calls are given as the source filed them. No cut-off for these calls is given here.

Key:
[1] = test system: CCRF-CEM; test: Cytotoxicity against human CCRF-CEM cells assessed as growth inhibition at 10 uM after 24 hrs by SRB assay; format: functional
[2] = test system: HL-60(TB); test: Cytotoxicity against human HL-60(TB) cells assessed as growth inhibition at 10 uM after 24 hrs by SRB assay; format: functional
[3] = test system: K562; test: Cytotoxicity against human K562 cells assessed as growth inhibition at 10 uM after 24 hrs by SRB assay; format: functional
[4] = test system: RPMI-8226; test: Cytotoxicity against human RPMI8226 cells assessed as growth inhibition at 10 uM after 24 hrs by SRB assay; format: functional
[5] = test system: SR; test: Cytotoxicity against human SR cells assessed as growth inhibition at 10 uM after 24 hrs by SRB assay; format: functional
[6] = test system: A549; test: Cytotoxicity against human A549 cells assessed as growth inhibition at 10 uM after 24 hrs by SRB assay; format: functional
[7] = test system: HOP-62; test: Cytotoxicity against human HOP62 cells assessed as growth inhibition at 10 uM after 24 hrs by SRB assay; format: functional
[8] = test system: HOP-92; test: Cytotoxicity against human HOP92 cells assessed as growth inhibition at 10 uM after 24 hrs by SRB assay; format: functional
[9] = test system: NCI-H226; test: Cytotoxicity against human NCI-H226 cells assessed as growth inhibition at 10 uM after 24 hrs by SRB assay; format: functional
[10] = test system: NCI-H460; test: Cytotoxicity against human NCI-H460 cells assessed as growth inhibition at 10 uM after 24 hrs by SRB assay; format: functional
[11] = test system: NCI-H522; test: Cytotoxicity against human NCI-H522 cells assessed as growth inhibition at 10 uM after 24 hrs by SRB assay; format: functional
[12] = test system: HCT-116; test: Cytotoxicity against human HCT116 cells assessed as growth inhibition at 10 uM after 24 hrs by SRB assay; format: functional
[13] = test system: SF-295; test: Cytotoxicity against human SF295 cells assessed as growth inhibition at 10 uM after 24 hrs by SRB assay; format: functional
[14] = test system: SF-539; test: Cytotoxicity against human SF539 cells assessed as growth inhibition at 10 uM after 24 hrs by SRB assay; format: functional
[15] = test system: SNB-75; test: Cytotoxicity against human SNB75 cells assessed as growth inhibition at 10 uM after 24 hrs by SRB assay; format: functional; details: for inhibition of growth at 10 µM: SNB-75, 24 h, read-out: GI
[16] = test system: U-251; test: Cytotoxicity against human U251 cells assessed as growth inhibition at 10 uM after 24 hrs by SRB assay; format: functional
[17] = test system: Malme-3M; test: Cytotoxicity against human MALME-3M cells assessed as growth inhibition at 10 uM after 24 hrs by SRB assay; format: functional
[18] = test system: MDA-MB-435; test: Cytotoxicity against human MDA-MB-435 cells assessed as growth inhibition at 10 uM after 24 hrs by SRB assay; format: functional
[19] = test system: SK-MEL-28; test: Cytotoxicity against human SK-MEL-28 cells assessed as growth inhibition at 10 uM after 24 hrs by SRB assay; format: functional
[20] = test system: SK-MEL-5; test: Cytotoxicity against human SK-MEL-5 cells assessed as growth inhibition at 10 uM after 24 hrs by SRB assay; format: functional
[21] = test system: UACC-257; test: Cytotoxicity against human UACC257 cells assessed as growth inhibition at 10 uM after 24 hrs by SRB assay; format: functional; details: for inhibition of growth at 10 µM: UACC-257, 24 h, read-out: GI
[22] = test system: UACC-62; test: Cytotoxicity against human UACC62 cells assessed as growth inhibition at 10 uM after 24 hrs by SRB assay; format: functional
[23] = test system: OVCAR-3; test: Cytotoxicity against human OVCAR3 cells assessed as growth inhibition at 10 uM after 24 hrs by SRB assay; format: functional
[24] = test system: OVCAR-4; test: Cytotoxicity against human OVCAR4 cells assessed as growth inhibition at 10 uM after 24 hrs by SRB assay; format: functional
[25] = test system: OVCAR-8; test: Cytotoxicity against human OVCAR8 cells assessed as growth inhibition at 10 uM after 24 hrs by SRB assay; format: functional
[26] = test system: NCI/ADR-RES; test: Cytotoxicity against human NCI/ADR-RES cells assessed as growth inhibition at 10 uM after 24 hrs by SRB assay; format: functional
[27] = test system: SK-OV-3; test: Cytotoxicity against human SKOV3 cells assessed as growth inhibition at 10 uM after 24 hrs by SRB assay; format: functional
[28] = test system: 786-0; test: Cytotoxicity against human 786-0 cells assessed as growth inhibition at 10 uM after 24 hrs by SRB assay; format: functional
[29] = test system: ACHN; test: Cytotoxicity against human ACHN cells assessed as growth inhibition at 10 uM after 24 hrs by SRB assay; format: functional
[30] = test system: CAKI-1; test: Cytotoxicity against human CAKI-1 cells assessed as growth inhibition at 10 uM after 24 hrs by SRB assay; format: functional
[31] = test system: TK-10; test: Cytotoxicity against human TK10 cells assessed as growth inhibition at 10 uM after 24 hrs by SRB assay; format: functional
[32] = test system: PC-3; test: Cytotoxicity against human PC3 cells assessed as growth inhibition at 10 uM after 24 hrs by SRB assay; format: functional
[33] = test system: MCF7; test: Cytotoxicity against human MCF7 cells assessed as growth inhibition at 10 uM after 24 hrs by SRB assay; format: functional
[34] = test system: MDA-MB-231; test: Cytotoxicity against human MDA-MB-231 cells assessed as growth inhibition at 10 uM after 24 hrs by SRB assay; format: functional; details: for inhibition of growth at 10 µM: MDA-MB-231, 24 h, read-out: GI
[35] = test system: Hs-578T; test: (§1) Cytotoxicity against human Hs578T cells assessed as growth inhibition at 10 uM after 24 hrs by SRB assay; format: functional
[36] = test system: T47D; test: Cytotoxicity against human T47D cells assessed as growth inhibition at 10 uM after 24 hrs by SRB assay; format: functional
[37] = species on record: Ovis aries; test: Inhibition of sheep tubulin polymerization at 100 uM by fluorescence assay
[38] = test system: RXF 393; test: Cytotoxicity against human RXF393 cells assessed as growth inhibition at 10 uM after 24 hrs by SRB assay; format: functional; details: RXF 393, 24 h, read-out: GI
[39] = as §1; format: functional; details: Hs-578T, read-out: GI

| SMILES | growth inhibition (GI) [1] | growth inhibition (GI) [2] | growth inhibition (GI) [3] | growth inhibition (GI) [4] | growth inhibition (GI) [6] | growth inhibition (GI) [8] | growth inhibition (GI) [9] | growth inhibition (GI) [10] | growth inhibition (GI) [11] | growth inhibition (GI) [12] | growth inhibition (GI) [14] | growth inhibition (GI) [16] | growth inhibition (GI) [18] | growth inhibition (GI) [20] | growth inhibition (GI) [22] | growth inhibition (GI) [23] | growth inhibition (GI) [25] | growth inhibition (GI) [26] | growth inhibition (GI) [27] | growth inhibition (GI) [28] | also measured |
| --- | --- | --- | --- | --- | --- | --- | --- | --- | --- | --- | --- | --- | --- | --- | --- | --- | --- | --- | --- | --- | --- |
| COc1nc(OC)nc(-c2cc(C(=O)c3ccc(Br)cc3)n3ccc(C)cc23)n1 | inactive | inactive | inactive | inactive | inactive | inactive | inactive | inactive | inactive | inactive | inactive | inactive | inactive | inactive | inactive | inactive | inactive | inactive | inactive | inactive | growth inhibition (GI) [5]: inactive; growth inhibition (GI) [7]: inactive; inhibition of growth at 10 µM ([13]; SF-295, 24 h, read-out: GI): 20%; growth inhibition (GI) [15]: inactive; inhibition of growth at 10 µM ([17]; read-out: GI): 73%; inhibition of growth at 10 µM ([19]; SK-MEL-28, 24 h, read-out: GI): 30%; inhibition of growth at 10 µM [21]: 31%; inhibition of growth at 10 µM ([24]; OVCAR-4, 24 h, read-out: GI): 95%; growth inhibition (GI) [29]: inactive; growth inhibition (GI) [30]: inactive; growth inhibition (GI) [31]: inactive; growth inhibition (GI) [32]: inactive; inhibition of growth at 10 µM ([33]; MCF7, 24 h, read-out: GI): 38%; growth inhibition (GI) [34]: inactive; growth inhibition (GI) [35]: inactive; growth inhibition (GI) [36]: inactive; inhibition [37]: inactive |
| COc1nc(OC)nc(-c2cc(C(=O)c3ccc(Br)cc3)n3ccc(C#N)cc23)n1 | inactive | inactive | inactive | inactive | inactive | inactive | inactive | inactive | inactive | inactive | inactive | inactive | inactive | inactive | inactive | inactive | inactive | inactive | inactive | inactive | growth inhibition (GI) [5]: inactive; growth inhibition (GI) [7]: inactive; growth inhibition (GI) [13]: inactive; inhibition of growth at 10 µM [15]: 27%; growth inhibition (GI) [17]: inactive; growth inhibition (GI) [19]: inactive; inhibition of growth at 10 µM [21]: 11%; growth inhibition (GI) [24]: inactive; growth inhibition (GI) [29]: inactive; growth inhibition (GI) [30]: inactive; inhibition of growth at 10 µM [38]: 14%; growth inhibition (GI) [31]: inactive; growth inhibition (GI) [32]: inactive; growth inhibition (GI) [33]: inactive; inhibition of growth at 10 µM [34]: 11%; growth inhibition (GI) [35]: inactive; growth inhibition (GI) [36]: inactive; inhibition [37]: inactive |
| COc1ccc(C(=O)c2cc(-c3nc(OC)nc(OC)n3)c3cc(C#N)ccn23)cc1 | inactive | inactive | inactive | inactive | inactive | inactive | inactive | inactive | inactive | inactive | inactive | inactive | inactive | inactive | inactive | inactive | inactive | inactive | inactive | inactive | inhibition of growth at 10 µM ([5]; read-out: GI): 13%; inhibition of growth at 10 µM ([7]; HOP-62, 24 h, read-out: GI): 25%; growth inhibition (GI) [13]: inactive; inhibition of growth at 10 µM [15]: 46%; growth inhibition (GI) [17]: inactive; growth inhibition (GI) [19]: inactive; growth inhibition (GI) [21]: inactive; growth inhibition (GI) [24]: inactive; growth inhibition (GI) [29]: inactive; growth inhibition (GI) [30]: inactive; inhibition of growth at 10 µM [38]: 14%; growth inhibition (GI) [31]: inactive; growth inhibition (GI) [32]: inactive; growth inhibition (GI) [33]: inactive; inhibition of growth at 10 µM [34]: 18%; inhibition of growth at 10 µM [39]: 16%; growth inhibition (GI) [36]: inactive; inhibition [37]: inactive |
